# US20110046070A1, “GENE EXPRESSION INHIBITOR SELECTIVE FOR MATRIX METALLOPROTEINASE-9 GENE” (priority 2008, published 2011)
# Assays:
# [1] = tested on: double-stranded DNA of the region from −77 to −70 containing the AP-1 binding site of the human matrix metalloproteinase-9 promoter; test: Gel shift assay (EMSA), AP-1 site oligonucleotide; conditions: 10 μM polyamide, 0.6 μM fluorescently labeled double-stranded DNA, 37° C., 1 hour
# Method: Oligonucleotides were synthesized and annealed to form 2 kinds of double-stranded oligonucleotides corresponding to the promoter base pairs against HMMP9AP1 and HMMP9NFκβ. One single-stranded oligonucleotide was labeled with FITC and hybridized with another single-stranded oligonucleotide as a complementary sequence to prepare double-stranded DNA. Specifically, nucleotides having the following nucleotide sequences were prepared: HMMP9AP1 (match) sense primer (5′[…]) (SEQ ID NO: 8) corresponding to the region from −77 to −70 containing the AP-1 binding site; this sequence plus 2-base mutation, i.e., HMMP9AP1 oligo DNA (mismatch 1) sense primer (5′[…]) (SEQ ID NO: 9); HMMP9NFκβ (match) sense primer (5′[…]) (SEQ ID NO: 10) containing the region from −605 to −599 containing the NFκβ binding site; this sequence plus 2-base mutation, i.e., HMMP9NFκβ (mismatch 1) sense primer (5′[…]) (SEQ ID NO: 11); and antisense primers respectively complementary to these 4 primers. […] The obtained complexes were electrophoresed on a 20% polyacrylamide gel, and the mobilities of the fluorescently labeled double-stranded oligonucleotides were analyzed with a fluorescent image analyzer (FUJIFILM, LAS-4000, Tokyo, Japan). […]
# [2] = tested on: binding of NF-κβ protein with the MMP-9 promoter region; test: Immunoprecipitation/PCR assay with anti-NF-κβ antibodies; format: cell-based, human; conditions: 1 μM, 4 hours, MDA-MB-231 and HeLa cells
# Method: Immunoprecipitation/PCR assay with anti-NF-κβ antibodies was conducted using MDA-MB-231 and HeLa cells. The MDA-MB-231 and HeLa cells were separately inoculated to a 100-mm culture dish and cultured for 24 hours in […] of Dulbecco's modified Eagle medium (DMEM) containing 10% fetal bovine serum (Invitrogen) and then with 1 μM match polyamide HMMP9NFκβ or 1 μM mismatch polyamide (shown in FIG. 26) for 4 hours. Protein-DNA complexes were fixed in 1% formaldehyde, reacted with specific NF-κB p65 antibodies and nonspecific rabbit immunoglobulin G antibodies, and collected by precipitation as antibody-protein-DNA complexes using Protein A beads. From the protein-DNA complexes, DNA was separated through reaction with 5 M NaCl and subjected to amplification reaction using PCR primers flanking the NFκβ binding sequence of MMP9. The NFκβ-bound DNA of an MMP9 gene promoter region is identified as a PCR product.
# An MMP-9 promoter region from −657 to −484 was amplified using PCR primers (forward: 5′-TGTCCCTTTACTGCCCTGA-3′ (SEQ ID NO: 20) and reverse: 5′-[…]-3′ (SEQ ID NO: 21)) (Schwingshackl A, Duszyk M, Brown N, Moqbel R. HμMan eosinophils release matrix metalloproteinase-9 on stimulation with TNF-α. J Allergy Clin Immunol 104: 983-989, 1999).
# [3] = tested on: liver metastasis of human colon cancer cell strain HT29 transplanted in the spleen; test: Nude mouse models with liver metastasis from human colon cancer; format: in vivo, nude mice; conditions: HT29 cells cultured 1 hour with 10 μM polyamide, splenic transplantation, 6 weeks
# Method: 5-week-old male nude mice (BALB/c Nude Mice CBy.Cg-Foxn1nu/J) (Jackson Laboratory) were purchased, maintained in a pathogen-free environment until 6 week olds, and used in the experiment. A human colon cancer cell strain HT29 was monolayer-cultured in a 100-cm^2 cell culture flask and treated with 0.05% trypsin and 0.02% EDTA solutions before reaching confluence. The cells were collected, centrifuged at 800 rpm for 3 minutes, then washed with PBS containing neither Ca^2+ nor Mg^2+, and cultured for 1 hour in a culture solution adjusted to a polyamide concentration of 10 μM or a polyamide-free culture solution. Then, a cell suspension having a concentration of 3×10^6 cells in 100 μl again was prepared using PBS. The thus-prepared 3 groups of the cells containing HMMP9NFκβ polyamide, containing mismatch polyamide and in polyamide-free PBS were separately administered to the nude mice (6 individuals/group). Longitudinal incision was made in the skin on the left side of the abdominal regions of the nude mice under anesthesia. After peritoneotomy to the spleen, 100 μl of the colon cancer cell suspension was transplanted to the splenic subcapsular region using a 29-G injection needle (FIG. 29A). The reliable splenic subcapsular transfer of the cell grafts was confirmed based on change in the color tone of the cell-transplanted site through the splenic capsule and the absence of bleeding or leakage of the suspension. After the transplantation, the mice were raised for 6 weeks and subjected to autopsy. The livers and the spleens were extracted, fixed in a 10% buffered formalin solution, then histologically stained with hematoxylin eosin, and subjected to microscopic observation. […] The liver metastatic foci are circled in the preparations.
binding to target double-stranded DNA (mobility versus lanes containing only DS) [1],NF-κβ p65-NF-κβ binding region complex of the MMP-9 promoter in immunoprecipitation with anti-NF-κβ p65 antibodies [2],Structure (SMILES),area of liver metastatic foci [3],number of liver metastatic foci [3],size of liver metastatic foci [3]
lower mobility,,CC(=O)Nc1cn(C)c(C(=O)Nc2cc(C(=O)NCCC(=O)Nc3cn(C)c(C(=O)Nc4cc(C(=O)Nc5cc(C(=O)NCCCC(=O)Nc6cn(C)c(C(=O)Nc7cn(C)c(C(=O)Nc8cc(C(=O)NCCC(=O)Nc9cn(C)c(C(=O)Nc%10cc(C(=O)NCCC(=O)NCCCN(C)C)n(C)c%10)n9)n(C)c8)n7)n6)n(C)c5)n(C)c4)n3)n(C)c2)n1 [HMMP9AP1],,,
,not detected,CC(=O)Nc1cc(C(=O)Nc2cc(C(=O)NCCC(=O)Nc3cc(C(=O)Nc4cc(C(=O)NCCCC(=O)Nc5cn(C)c(C(=O)Nc6cn(C)c(C(=O)NCCC(=O)Nc7cc(C(=O)Nc8cc(C(=O)NCCC(=O)NCCCN(C)C)n(C)c8)n(C)c7)n6)n5)n(C)c4)n(C)c3)n(C)c2)n(C)c1 [HMMP9NFκβ],small,distinctly small,distinctly small
